Tested on: MNT-1 cells
Test: Measurement of the relative melanin concentration (absorbance at 470 nm of protein lysates)
Type: cell-based, human
Conditions: Homo sapiens, 288 h, 3.5 mM, 12 days, read-out: percentage inhibition (depigmentation positive control)
Procedure: 4×10^5 MNT-1 cells were seeded per well in a 6-well plate (#353046, Falcon) on day-1. On day 0, the cells were transfected with 50 nM of mimetic of the miRNAs (hsa-mir-137 # C-300604-07-005, hsa-mir-7 # C-300547-05-0005, hsa-mir-330-5p # C-301082-01-0005, negative control # NC-002000-01-05, Dharmacon), using 5 μL of Lipofectamine 2000 (#1668-019, Invitrogen). On day 1, the medium was changed. On day 3, the cells were trypsinized and seeded at 4×10^5 cells per well. On day 4, the cells were transfected again with 50 nM of mimetic of the miRNAs (see day 0). On day 5, the medium was changed. On day 7, the cells were trypsinized and seeded at 4×10^5 cells per well. On day 8, the cells were transfected with 50 nM of mimetic of the miRNAs (see day 0). On day 9, the medium was changed. On day 10, the cells were trypsinized and divided into two (from one by six wells to two by six wells). On day 12, one six-well plate was used for lysis of the RNA and the other for lysis of the proteins. As positive control of depigmentation, MNT-1 cells were incubated with 3.5 mM of kojic acid (Sigma K3125-5G) for 12 days. The cells were distributed as described and the kojic acid was renewed with the medium every 4 days. The percentage inhibition of the kojic acid is of the order of 10%.
On day 12, the cells were washed in PBS twice and lysed in 75 μL/well of a 6-well dish of lysis buffer for the RIPA proteins. The protein lysates were transferred to 1.5-ml Eppendorf tubes and vortexed lightly to homogenize the solution before putting the tube on ice or for storage at −80° C. 2 μL of protein lysate was used for measuring the absorbance of the melanin at 470 nm using the NanoVue spectrophotometer (GE Healthcare). The protein lysate of the unpigmented XB2 keratinocytes was used as calibrator sample (reference=0). To detect the relative quantity of melanin, all the samples were compared with the transfection control sample (miCtrl). The absorbance at 470 nm of the sample miCtrl was fixed at 1 as reference. In addition, the melanin absorption at 470 nm was normalized taking into account the concentration of proteins of each sample relative to miCtrl.

Structure (SMILES): O=c1cc(CO)occ1O [kojic acid, reference compound]
- inhibition at 3500 µM: ~10%
